Reference: EP2196465A1, “(3-oxo)pyridazin-4-ylurea derivatives as PDE4 inhibitors” (Almirall, S.A., priority 2008, dated 2010)
pIC50: −log10 of the molar value.

What follows are compounds tested against recombinant PDE4 enzyme (assay: PDE4 [3H] cAMP Scintillation Proximity Assay (SPA)). Settings: inhibition of PDE4; 30 nM [3H] cAMP, 1 hr at room temperature, yeast extract of recombinant PDE4 enzyme.
Type: biochemical
Method: Measurement of Phosphodiesterase Activity was done using a [3H] cAMP Scintillation Proximity Assay (SPA) (GE Healthcare). Compounds to be tested were disolved in DMSO at a stock concentration of 1mM and serial dilutions were prepared in 50% DMSO to determine IC50s.
The reactions were conducted in 96-well plates (Corning, Ref.3604) at room temperature, in 0.1 ml of reaction buffer containing (final concentrations): 50 mM Tris-HCl, pH 7.5, 8.3 mM MgCl2, 1.7 mM EGTA, 30 nM [3H] cAMP (approximately 150000 dpm/well) with or without the inhibitors. The reaction was initiated by adding yeast extract of recombinant PDE4 enzyme.
Plates were shaken for 1 hr at room temperature and the incubation was terminated by adding 50 µl (0.5 mg /well) of SPA yttrium silicate beads (RPNQ 0150; GE Healthcare) in the presence of zinc sulfate. Plates were stored overnight in the dark and read on a TRILUX microtiter plate reader (Perkin Elmer).

SMILES | pIC50
CCn1nc(-c2cccc(-c3cc(F)ccc3O)c2)cc(NC(=O)Nc2c(Cl)cncc2Cl)c1=O [Example 4, N-(3,5-Dichloropyridin-4-yl)-N'-[2-ethyl-6-(5'-fluoro-2'-hydroxybiphenyl-3-yl)-3-oxo-2,3-dihydropyridazin-4-yl]urea] | 9.63
CCn1nc(-c2cccc(-c3ccc(C(=O)O)cc3)c2)cc(NC(=O)Nc2c(Cl)cncc2Cl)c1=O [Example 26, 3'-[5-({[(3,5-Dichloropyridin-4-yl)amino]carbonyl}amino)-1-ethyl-6-oxo-1,6-dihydropyridazin-3-yl]biphenyl-4-carboxylic acid] | 10.01
CCn1nc(-c2cccc(-c3ccc(CC(=O)NCCN4CCCCC4)cc3)c2)cc(NC(=O)Nc2c(Cl)cncc2Cl)c1=O [Example 117, 2-(3'-(5-(3-(3,5-dichloropyridin-4-yl)ureido)-1-ethyl-6-oxo-1,6-dihydropyridazin-3-yl)biphenyl-4-yl)-N-(2-(piperidin-1-yl)ethyl)acetamide] | 10.31
CCn1nc(-c2cccc(-c3cccc(CC(=O)NCCN4CCCCC4)c3)c2)cc(NC(=O)Nc2c(Cl)cncc2Cl)c1=O [Example 118, 2-(3'-(5-(3-(3,5-dichloropyridin-4-yl)ureido)-1-ethyl-6-oxo-1,6-dihydropyridazin-3-yl)biphenyl-3-yl)-N-(2-(piperidin-1-yl)ethyl)acetamide] | 10.00
CCn1nc(-c2cccc(-c3cccc(CC(=O)NCCN4CCOCC4)c3)c2)cc(NC(=O)Nc2c(Cl)cncc2Cl)c1=O [Example 119, 2-(3'-(5-(3-(3,5-dichloropyridin-4-yl)ureido)-1-ethyl-6-oxo-1,6-dihydropyridazin-3-yl)biphenyl-3-yl)-N-(2-morpholinoethyl)acetamide] | 10.21
CCn1nc(-c2cccc(-c3ccc(CC(=O)NCCCCCCCN(C)CCO)cc3)c2)cc(NC(=O)Nc2c(Cl)cncc2Cl)c1=O [Example 122, 2-(3'-(5-(3-(3,5-dichloropyridin-4-yl)ureido)-1-ethyl-6-oxo-1,6-dihydropyridazin-3-yl)biphenyl-4-yl)-N-(7-((2-hydroxyethyl)(methyl)amino)heptyl)acetamide] | 10.25
CCn1nc(-c2cccc(-c3cc(O)cc(C(=O)NCCCCCCCN(C)CCO)c3)c2)cc(NC(=O)Nc2c(Cl)cncc2Cl)c1=O [Example 124, 3'-(5-(3-(3,5-dichloropyridin-4-yl)ureido)-1-ethyl-6-oxo-1,6-dihydropyridazin-3-yl)-5-hydroxy-N-(7-((2-hydroxyethyl)(methyl)amino)heptyl)biphenyl-3-carboxamide] | 10.43
CCn1nc(-c2cccc(-c3cc(O)cc(C(=O)NC4CC4)c3)c2)cc(NC(=O)Nc2c(Cl)cncc2Cl)c1=O [Example 126, N-cyclopropyl-3'-[5-({[(3,5-dichloropyridin-4-yl)amino]carbonyl}amino)-1-ethyl-6-oxo-1,6-dihydropyridazin-3-yl]-5-hydroxybiphenyl-3-carboxamide] | 10.12
CCn1nc(-c2cccc(-c3cccc(CC(=O)NC4CC4)c3)c2)cc(NC(=O)Nc2c(Cl)cncc2Cl)c1=O [Example 127, N-cyclopropyl-2-{3'-[5-({[(3,5-dichloropyridin-4-yl)amino]carbonyl}amino)-1-ethyl-6-oxo-1,6-dihydropyridazin-3-yl]biphenyl-3-yl}acetamide] | 9.76

Results, then the compound that gave them:

pIC50 | SMILES
10.33 | CCn1nc(-c2cccc(-c3cccc(C(=O)NCCN(C)C)c3)c2)cc(NC(=O)Nc2c(Cl)cncc2Cl)c1=O [Example 17, 3'-[5-({[(3,5-Dichloropyridin-4-yl)amino]carbonyl}amino)-1-ethyl-6-oxo-1,6-dihydropyridazin-3-yl]-N-[2-(dimethylamino)ethyl]biphenyl-3-carboxamide]
9.90 | CCn1nc(-c2cccc(-c3cccc(C(=O)NC4CC4)c3)c2)cc(NC(=O)Nc2c(Cl)cncc2Cl)c1=O [Example 21, N-Cyclopropyl-3'-[5-({[(3,5-dichloropyridin-4-yl)amino]carbonyl}amino)-1-ethyl-6-oxo-1,6-dihydropyridazin-3-yl]biphenyl-3-carboxamide]
9.88 | CCn1nc(-c2cccc(-c3cccc(C(=O)NCCCN(C)C)c3)c2)cc(NC(=O)Nc2c(Cl)cncc2Cl)c1=O [Example 22, 3'-[5-({[(3,5-Dichloropyridin-4-yl)amino]carbonyl}amino)-1-ethyl-6-oxo-1,6-dihydropyridazin-3-yl]-N-[3-(dimethylamino)propyl]biphenyl-3-carboxamide]
9.98 | CCn1nc(-c2cccc(-c3cccc(C(=O)NCCN4CCCCC4)c3)c2)cc(NC(=O)Nc2c(Cl)cncc2Cl)c1=O [Example 51, 3'-[5-({[(3,5-Dichloropyridin-4-yl)amino]carbonyl}amino)-1-ethyl-6-oxo-1,6-dihydropyridazin-3-yl]-N-(2-piperidin-1-ylethyl)biphenyl-3-carboxamide]
10.51 | CCn1nc(-c2cccc(-c3cccc(C(=O)NCCCCCCCN(C)CCO)c3)c2)cc(NC(=O)Nc2c(Cl)cncc2Cl)c1=O [Example 120, 3'-(5-(3-(3,5-dichloropyridin-4-yl)ureido)-1-ethyl-6-oxo-1,6-dihydropyridazin-3-yl)-N-(7-((2-hydroxyethyl)(methyl)amino)heptyl)biphenyl-3-carboxamide]
9.41 | CCn1nc(-c2cccc(-c3cccc(C(=O)NCc4ccc(O)cc4)c3)c2)cc(NC(=O)Nc2c(Cl)cncc2Cl)c1=O [Example 138, 3'-[5-({[(3,5-dichloropyridin-4-yl)amino]carbonyl}amino)-1-ethyl-6-oxo-1,6-dihydropyridazin-3-yl]-N-(4-hydroxybenzyl)biphenyl-3-carboxamide]
